Like-named read-outs stand apart in the source and are kept apart here. Marks after values point to notes of the source that are not given here.
Experiments:
[1] = tested on: Calu-6 human non-small cell lung cancer xenograft; design: method as in earlier work; details: AZD6244 3 mg/kg BD; AZD2171 […] QD; ref IB; cited from earlier work
[2] = cited from earlier work
[3] = ref Study D1532C00005, cited from earlier work
[4] = design: method as in earlier work; details: twice-daily oral dosing in SBE-CD, monkeys; no notable gastrointestinal tract or renal pathology; ref IB; cited from earlier work
[5] = tested on: HCT-116 human colorectal cancer xenograft; design: method as in earlier work; details: AZD6244 25 m/kg BD; docetaxel 15 mg/kg once weekly; ref IB; cited from earlier work
[6] = design: method as in product label; details: ref product label, cited from earlier work
[7] = tested on: SW620 human colorectal cancer xenograft; design: method as in earlier work; details: ref IB, cited from earlier work
[8] = design: method as in product label; details: ref product label, cited from earlier work; remark: listed apart in the source
[9] = Pharmacokinetics alone and in combination, selumetinib + erlotinib arm
Description: (§1) PK parameters were derived using non-compartmental analysis. Cmax and tmax were determined by visual inspection of the plasma concentration-time profiles. AUC(0–12) was calculated by the linear trapezoidal rule. Where more than one maximum occurred, the reported value was assigned to the first occurrence.

[10] = tested on: Lovo colorectal cancer xenograft; design: method as in earlier work; details: rapamycin experiment, usual monotherapy schedules, doses not given; ref IB; cited from earlier work
[11] = Pharmacokinetics alone and in combination, selumetinib + temsirolimus arm; type: in vivo, human; details: human, plasma, iv; for AUC(0-t) / AUC(0–12) / Cmax: geometric mean (% CV); for AUC(0-t): read-out: AUC(0–8); for AUC(0–12): read-out: AUC(0–12); for Cmax: read-out: Cmax; for tmax: median (range), read-out: tmax
Description: as §1

[12] = AZD6244 25 mg/kg BD, irinotecan 25 mg/kg once weekly, docetaxel 15 mg/kg once weekly
[13] = NSCLC patients, single-agent erlotinib 150 mg
[14] = geometric mean, QD cohorts, dosed alone, selumetinib 150 mg cohort (N = 13), erlotinib 100 mg QD
[15] = dosed alone, selumetinib 50 mg cohort (N = 25), temsirolimus 25 mg IV
[16] = dosed alone, selumetinib 75 mg cohort (N = 6), temsirolimus 25 mg IV
[17] = dosed in combination, selumetinib 50 mg BID (N = 22) + temsirolimus 25 mg IV
[18] = dosed in combination, selumetinib 75 mg BID (N = 5) + temsirolimus 25 mg IV

COc1cc2c(Oc3ccc4[nH]c(C)cc4c3F)ncnc2cc1OCCCN1CCCC1 [AZD2171, reference compound]
Tumor growth inhibition as a % of control [1]: 49.6 % of control

Cn1cnc2c(F)c(Nc3ccc(Br)cc3Cl)c(C(=O)NOCCO)cc21 [AZD6244 Hyd-Sulfate]
toxicity findings, 6-month study ([2]; male mice dosed 8–15 weeks at the high dose level, ref IB): dilation of the corpus spongiosum | tissue mineralization ([2]; mice dosed for up to one month, ref IB): multiple tissues (cornea, kidney, liver, myocardium, skeletal muscle, glandular stomach) | toxicity findings at non-tolerated dose levels ([2]; mouse, in vivo, po): gastrointestinal tract toxicity and hematopoietic atrophy | DLT in the first 22 days of dosing ([3]; 75 mg BD cohort, one DLT): CTCAE Grade 3 fatigue | DLTs in the first 22 days of dosing ([3]; 100mg BD cohort, two DLTs): pleural effusion and rash (both CTC AE Grade 3) | maximum tolerated dose ([3]; capsule formulation): 75 mg BD | toxicity findings [4]: fluid and/or red colored feces

CC(=O)O[C@@]12CO[C@@H]1C[C@H](O)[C@@]1(C)C(=O)[C@H](O)C3=C(C)[C@@H](OC(=O)[C@H](O)[C@@H](NC(=O)OC(C)(C)C)c4ccccc4)C[C@@](O)([C@@H](OC(=O)c4ccccc4)[C@H]21)C3(C)C [Docetaxel]
Tumor growth inhibition as a % of control [5]: 93.4 % of control | severe neurosensory symptoms (paresthesia, dysesthesia, pain) ([6]; 53/965 metastatic breast cancer patients): 5.5% | treatment discontinuation due to severe neurosensory symptoms ([6]; metastatic breast cancer patients): 6.1% | Tumor growth inhibition as a % of control [7, 12]: 12 % of control

C#Cc1cccc(Nc2ncnc3cc(OCCOC)c(OCCOC)cc23)c1 [Erlotinib, reference compound]
Grade 3/4 diarrhea [8, 13]: 6% | Grade 3/4 rash [8, 13]: 9% | median time to onset of diarrhea [8, 13]: 12 days | median time to onset of rash [8, 13]: 8 days | patients needing dose reduction for diarrhea [8, 13]: 1% | patients needing dose reduction for rash [8, 13]: Six | study discontinuation due to diarrhea [8, 13]: 1% | study discontinuation due to rash [8, 13]: 1% | median time to start of ILD-like symptoms after initiating therapy ([8]; range 5 days to more than 9 months): 39 days | Cmax ([9]; geometric mean (% CV), dosed alone, selumetinib 50 mg cohort (N = 14), erlotinib 100 mg QD): 1681 (27.13) [13] ng/mL | Cmax ([9]; geometric mean (% CV), dosed in combination, selumetinib 50 mg BID (N = 12) + erlotinib 100 mg QD): 1725 (30.11) ng/mL | Cmax ([9]; geometric mean (% CV), dosed in combination, selumetinib 75 mg BID (N = 6) + erlotinib 100 mg QD): 1739 (39.86) ng/mL | Cmax ([9]; geometric mean, QD cohorts, dosed alone, selumetinib 100 mg cohort (N = 6), erlotinib 100 mg QD): 1180 ng/mL | AUC(0–8) [9, 14]: 12,710^c ng•h/mL | Cmax [9, 14]: 1980^c ng/mL | Cmax ([9]; geometric mean, QD cohorts, in combination, selumetinib 50 mg (N = 6) + erlotinib 100 mg QD): 1468^d ng/mL | tmax ([9]; human, plasma, oral): 1.5 h | tmax ([9]; human, plasma, oral, 100 mg): 1.5 h | AUC(0-t) ([9]; human, plasma, oral, 100 mg, AUC(0–8), geometric mean, QD cohorts, dosed alone, selumetinib 100 mg cohort (N = 6), erlotinib 100 mg QD): 7100 ng·h/mL | AUC(0-t) ([9]; human, plasma, oral, 100 mg, AUC(0–12), geometric mean, QD cohorts, dosed alone, selumetinib 100 mg cohort (N = 6), erlotinib 100 mg QD): 10300 ng·h/mL | AUC(0-t) ([9]; human, plasma, oral, AUC(0–8), geometric mean (% CV), dosed alone, selumetinib 50 mg cohort (N = 14), erlotinib 100 mg QD): 10100 ng·h/mL | AUC(0-t) ([9]; human, plasma, oral, AUC(0–8), geometric mean (% CV), dosed alone, selumetinib 75 mg cohort (N = 6), erlotinib 100 mg QD): 9590 ng·h/mL | AUC(0-t) ([9]; human, plasma, oral, AUC(0–8), geometric mean (% CV), dosed in combination, selumetinib 50 mg BID (N = 12) + erlotinib 100 mg QD): 10400 ng·h/mL | AUC(0-t) ([9]; human, plasma, oral, AUC(0–8), geometric mean (% CV), dosed in combination, selumetinib 75 mg BID (N = 6) + erlotinib 100 mg QD): 10400 ng·h/mL | AUC(0-t) ([9]; human, plasma, oral, AUC(0–8), geometric mean, QD cohorts, dosed alone, selumetinib 50 mg cohort (N = 7), erlotinib 100 mg QD): 9620 ng·h/mL | AUC(0-t) ([9]; human, plasma, oral, AUC(0–8), geometric mean, QD cohorts, in combination, selumetinib 50 mg (N = 6) + erlotinib 100 mg QD): 8600 ng·h/mL | AUC(0-t) ([9]; human, plasma, oral, AUC(0–8), geometric mean, QD cohorts, in combination, selumetinib 100 mg (N = 6) + erlotinib 100 mg QD): 8500 ng·h/mL | AUC(0-t) ([9]; human, plasma, oral, AUC(0–8), geometric mean, QD cohorts, in combination, selumetinib 150 mg (N = 12) + erlotinib 100 mg QD): 13000 ng·h/mL | AUC(0-t) ([9]; human, plasma, oral, AUC(0–12), geometric mean (% CV), dosed alone, selumetinib 50 mg cohort (N = 14), erlotinib 100 mg QD): 14500 ng·h/mL | AUC(0-t) ([9]; human, plasma, oral, AUC(0–12), geometric mean (% CV), dosed alone, selumetinib 75 mg cohort (N = 6), erlotinib 100 mg QD): 13800 ng·h/mL | AUC(0-t) ([9]; human, plasma, oral, AUC(0–12), geometric mean (% CV), dosed in combination, selumetinib 50 mg BID (N = 12) + erlotinib 100 mg QD): 14700 ng·h/mL | AUC(0-t) ([9]; human, plasma, oral, AUC(0–12), geometric mean (% CV), dosed in combination, selumetinib 75 mg BID (N = 6) + erlotinib 100 mg QD): 14700 ng·h/mL | AUC(0-t) ([9]; human, plasma, oral, AUC(0–12), geometric mean, QD cohorts, dosed alone, selumetinib 50 mg cohort (N = 7), erlotinib 100 mg QD): 14000 ng·h/mL | AUC(0-t) ([9]; human, plasma, oral, AUC(0–12), geometric mean, QD cohorts, dosed alone, selumetinib 150 mg cohort (N = 13), erlotinib 100 mg QD): 18300 ng·h/mL | AUC(0-t) ([9]; human, plasma, oral, AUC(0–12), geometric mean, QD cohorts, in combination, selumetinib 100 mg (N = 6) + erlotinib 100 mg QD): 12000 ng·h/mL | AUC(0-t) ([9]; human, plasma, oral, AUC(0–12), geometric mean, QD cohorts, in combination, selumetinib 150 mg (N = 12) + erlotinib 100 mg QD): 18600 ng·h/mL | Cmax ([9]; human, plasma, oral, Cmax, geometric mean (% CV), dosed alone, selumetinib 75 mg cohort (N = 6), erlotinib 100 mg QD): 1420 ng/mL | Cmax ([9]; human, plasma, oral, Cmax, geometric mean, QD cohorts, dosed alone, selumetinib 50 mg cohort (N = 7), erlotinib 100 mg QD): 1620 ng/mL | Cmax ([9]; human, plasma, oral, Cmax, geometric mean, QD cohorts, in combination, selumetinib 100 mg (N = 6) + erlotinib 100 mg QD): 1430 ng/mL | Cmax ([9]; human, plasma, oral, Cmax, geometric mean, QD cohorts, in combination, selumetinib 150 mg (N = 12) + erlotinib 100 mg QD): 2030 ng/mL | tmax ([9]; median (range), QD cohorts, dosed alone, selumetinib 150 mg cohort (N = 13), erlotinib 100 mg QD): 2.00 (1.00–6.00)^c h | tmax ([9]; median (range), QD cohorts, in combination, selumetinib 50 mg (N = 6) + erlotinib 100 mg QD): 4.00 (1.00–8.00)^d h | tmax ([9]; median (range), dosed alone, selumetinib 75 mg cohort (N = 6), erlotinib 100 mg QD): 3.0 (2.0–6.0) h | PK parameters when administered alone and in combination ([9]; selumetinib + erlotinib arm): similar

CCc1c2c(nc3ccc(OC(=O)N4CCC(N5CCCCC5)CC4)cc13)-c1cc3c(c(=O)n1C2)COC(=O)[C@]3(O)CC [Irinotecan]
Tumor growth inhibition as a % of control [7, 12]: 67 % of control

CO[C@H]1C[C@@H]2CC[C@@H](C)[C@@](O)(O2)C(=O)C(=O)N2CCCC[C@H]2C(=O)O[C@H]([C@H](C)C[C@@H]2CC[C@@H](O)[C@H](OC)C2)CC(=O)[C@H](C)/C=C(\C)[C@@H](O)[C@@H](OC)C(=O)[C@H](C)C[C@H](C)/C=C/C=C/C=C/1C [Sirolimus]
Tumor growth inhibition as a % of control [10]: 38 % of control | AUC(0-t) [11, 15]: 341 ng·h/mL | AUC(0–12) [11, 15]: 514 ng·h/mL | Cmax [11, 15]: 58.5 ng/mL | AUC(0-t) [11, 16]: 266 ng·h/mL | AUC(0–12) [11, 16]: 382 ng·h/mL | Cmax [11, 16]: 49.5 ng/mL | AUC(0-t) [11, 17]: 394 ng·h/mL | AUC(0–12) [11, 17]: 584 ng·h/mL | Cmax [11, 17]: 67 ng/mL | AUC(0-t) [11, 18]: 292 ng·h/mL | AUC(0–12) [11, 18]: 360 ng·h/mL | Cmax [11, 18]: 51.2 ng/mL | tmax [11, 15]: 1.5 h | tmax [11, 16]: 2 h | tmax [11, 17]: 1.5 h | tmax [11, 18]: 2 h

Cn1nnc2c(C(N)=O)ncn2c1=O [Temozolamide]
Tumor growth inhibition as a % of control ([7]; temozolamide experiment, usual monotherapy schedules, doses not given): 15 % of control

Reference: PMC5613062 (Investigational New Drugs, 2017)
